# Laboratory results reported in patent US20200368312A1 (priority 2017, published 2020).
# Where two headings read alike, the source gives them in different places.
# Key:
# Type in all cases: cell-based
# C. perfringens = test system: C. perfringens
# S. epidermidis (CoNS) = assay: Broth microdilution MIC, S. epidermidis (CoNS) (Table 7)
# P. acnes = assay: Broth microdilution MIC, P. acnes (Table 7)
# Enterococci = test system: Enterococci
# P. micros = assay: Broth microdilution MIC, P. micros (Table 7); details: P. micros MMX 3546
# S. hominis (CoNS) = assay: Broth microdilution MIC, S. hominis (CoNS) (Table 7); details: S. hominis (CoNS) MMX 667 ATCC 27844
# Streptococci = assay: Broth microdilution MIC, Streptococci (Example 11, Table 7)
# S. haemolyticus (CoNS) = assay: Broth microdilution MIC, S. haemolyticus (CoNS) (Table 7); details: S. haemolyticus (CoNS) MMX 529 ATCC 29970
# P. anaerobius = assay: Broth microdilution MIC, P. anaerobius (Table 7); details: P. anaerobius MMX 1208 ATCC 27337
# S. lugdenensis (CoNS) = assay: Broth microdilution MIC, S. lugdenensis (CoNS) (Table 7); details: S. lugdenensis (CoNS) MMX 8724
# Staphylococcus aureus = assay: microbe, parasite or virus in culture; details: for MIC: Staphylococcus aureus, read-out: MIC
# Clostridium difficile = assay: Broth microdilution MIC, C. difficile, anaerobic, supplemented Brucella Broth (Example 11, Table 7); details: C. difficile MMX 4381 ATCC 700057, toxinAB-negative
# [1] = S. epidermidis (CoNS) MMX 762, MRSE
# [2] = S. epidermidis (CoNS) MMX 5145, MRSE
# [3] = E. faecalis MMX 101 ATCC 29212, VSE
# [4] = S. anginosus (AGS) MMX 1201 ATCC 33397
# [5] = S. pneumoniae MMX 1195 ATCC 49619, PISP
# [6] = ATCC 29213 / MSSA, S. aureus MMX 100 ATCC 29213, MSSA (quality control)
# [7] = ATCC 33591 / MRSA, S. aureus MMX 5717 ATCC 33591, MRSA
# [8] = ATCC BAA-1556 / MRSA, S. aureus MMX 4675 ATCC BAA-1556, MRSA
# [9] = ATCC BAA-1756 / MRSA, S. aureus MMX 2011 ATCC BAA-1756, MRSA
# [10] = VISA, S. aureus MMX 1723, Mu50, VISA
# [11] = VISA, S. aureus MMX 2124, VISA, DaptoNS
structure (smiles),measurement,setting,value
CN[C@H](CC(C)C)C(=O)N[C@H]1C(=O)N[C@@H](CC(N)=O)C(=O)N[C@H]2C(=O)N[C@H]3C(=O)N[C@H](C(=O)N[C@H](C(=O)O)c4cc(O)cc(O)c4-c4cc3ccc4O)[C@H](O[C@H]3C[C@](C)(N)[C@@H](O)[C@H](C)O3)c3ccc(c(Cl)c3)Oc3cc2cc(c3O[C@@H]2O[C@H](CO)[C@@H](O)[C@H](O)[C@H]2O[C@H]2C[C@](C)(NCc3ccc(-c4ccc(Cl)cc4)cc3)[C@@H](O)[C@H](C)O2)Oc2ccc(cc2Cl)[C@H]1O [Oritavancin],MIC,C. perfringens,0.015 µg/mL
same,MIC,S. epidermidis (CoNS); [1],0.25 µg/mL
same,MIC,S. epidermidis (CoNS); [2],0.12 µg/mL
same,MIC,P. acnes; P. acnes MMX 7942 ATCC 6919,≤ 0.008 µg/mL
same,MIC,P. acnes; P. acnes MMX 7946 ATCC 11827,≤ 0.008 µg/mL
same,MIC,Enterococci; [3],≤ 0.008 µg/mL
same,MIC,"Enterococci; E. faecalis MMX 1086, VanA VRE",1 µg/mL
same,MIC,Enterococci; E. faecalis MMX 4176,0.03 µg/mL
same,MIC,"Enterococci; E. faecium MMX 173, VanB VRE",≤ 0.008 µg/mL
same,MIC,"Enterococci; E. faecium MMX 851, VanA VRE",0.12 µg/mL
same,MIC,Enterococci; E. faecium MMX 4204,0.015 µg/mL
same,MIC,P. micros,0.03 µg/mL
same,MIC,S. hominis (CoNS),0.06 µg/mL
same,MIC,Streptococci; S. agalactiae MMX 427 ATCC 13813,1 µg/mL
same,MIC,Streptococci; S. agalactiae MMX 4088,0.12 µg/mL
same,MIC,"Streptococci; S. agalactiae MMX 4115, erm^R",0.25 µg/mL
same,MIC,Streptococci; [4],0.5 µg/mL
same,MIC,Streptococci; S. constellatus (AGS) MMX 5677,≤ 0.008 µg/mL
same,MIC,Streptococci; S. dysgalactiae MMX 5121,0.05 µg/mL
same,MIC,Streptococci; S. dysgalactiae MMX 5123,2 µg/mL
same,MIC,Streptococci; S. dysgalactiae MMX 5124,1 µg/mL
same,MIC,Streptococci; S. mitis (MGS) MMX 1205 ATCC 49456,0.03 µg/mL
same,MIC,Streptococci; S. mitis (MGS) MMX 5798,0.25 µg/mL
same,MIC,Streptococci; S. oralis (MGS) MMX 5821,≤ 0.008 µg/mL
same,MIC,"Streptococci; S. pneumoniae MMX 432, PRSP",≤ 0.008 µg/mL
same,MIC,Streptococci; S. pneumoniae MMX 747,≤ 0.008 µg/mL
same,MIC,Streptococci; [5],≤ 0.008 µg/mL
same,MIC,Streptococci; S. pyogenes MMX 404 ATCC 19615,2 µg/mL
same,MIC,"Streptococci; S. pyogenes MMX 946, ermR",0.25 µg/mL
same,MIC,Streptococci; S. pyogenes MMX 8778,1 µg/mL
same,MIC,S. haemolyticus (CoNS),0.12 µg/mL
same,MIC,P. anaerobius,0.03 µg/mL
same,MIC,S. lugdenensis (CoNS),≤ 0.008 µg/mL
same,RV40 activity as compared to Comparator,Staphylococcus aureus,17 ×
same,MIC,Staphylococcus aureus; [6],0.03 µg/mL
same,MIC,Staphylococcus aureus; [7],0.12 µg/mL
same,MIC,Staphylococcus aureus; [8],0.06 µg/mL
same,MIC,Staphylococcus aureus; [9],0.03 µg/mL
same,MIC,"Staphylococcus aureus; MRSA, S. aureus MMX 2010, MRSA",0.06 µg/mL
same,MIC,"Staphylococcus aureus; MRSA, S. aureus MMX 3982, MRSA",0.12 µg/mL
same,MIC,"Staphylococcus aureus; MRSA, S. aureus MMX 5985, MRSA",0.03 µg/mL
same,MIC,"Staphylococcus aureus; MRSA, S. aureus MMX 5999, MRSA",0.12 µg/mL
same,MIC,"Staphylococcus aureus; MRSA, S. aureus MMX 7899, MRSA",0.12 µg/mL
same,MIC,"Staphylococcus aureus; MRSA, S. aureus MMX 7900, MRSA",0.12 µg/mL
same,MIC,"Staphylococcus aureus; MRSA, S. aureus MMX 7901, MRSA",0.5 µg/mL
same,MIC,"Staphylococcus aureus; MRSA, S. aureus MMX 7902, MRSA",0.5 µg/mL
same,MIC,"Staphylococcus aureus; MRSA, S. aureus MMX 7903, MRSA",0.06 µg/mL
same,MIC,"Staphylococcus aureus; MSSA, S. aureus MMX 2490, MSSA",0.025 µg/mL
same,MIC,"Staphylococcus aureus; MSSA, S. aureus MMX 7907, MSSA",0.06 µg/mL
same,MIC,"Staphylococcus aureus; MSSA, S. aureus MMX 7908, MSSA",0.06 µg/mL
same,MIC,"Staphylococcus aureus; S. aureus MMX 4665, hVISA",0.5 µg/mL
same,MIC,"Staphylococcus aureus; S. aureus MMX 5989, Mu3, hVISA",0.12 µg/mL
same,MIC,Staphylococcus aureus; [10],1 µg/mL
same,MIC,Staphylococcus aureus; [11],1 µg/mL
same,MIC,"Staphylococcus aureus; VISA, S. aureus MMX 4658, VISA",0.25 µg/mL
same,MIC,"Staphylococcus aureus; VISA, S. aureus MMX 4660, VISA",1 µg/mL
CC(=O)NC[C@H]1CN(c2ccc(N3CCOCC3)c(F)c2)C(=O)O1 [Linezolid],MIC,S. epidermidis (CoNS); [1],2 µg/mL
same,MIC,S. epidermidis (CoNS); [2],0.5 µg/mL
same,MIC,Enterococci; [3],2 µg/mL
same,MIC,"Enterococci; E. faecalis MMX 1086, VanA VRE",2 µg/mL
same,MIC,Enterococci; E. faecalis MMX 4176,4 µg/mL
same,MIC,"Enterococci; E. faecium MMX 173, VanB VRE",4 µg/mL
same,MIC,"Enterococci; E. faecium MMX 851, VanA VRE",2 µg/mL
same,MIC,Enterococci; E. faecium MMX 4204,2 µg/mL
same,MIC,S. hominis (CoNS),1 µg/mL
same,MIC,Clostridium difficile,1 µg/mL
same,MIC,Streptococci; S. agalactiae MMX 4088,1 µg/mL
same,MIC,"Streptococci; S. agalactiae MMX 4115, erm^R",1 µg/mL
same,MIC,Streptococci; [4],0.5 µg/mL
same,MIC,Streptococci; S. constellatus (AGS) MMX 5677,0.5 µg/mL
same,MIC,Streptococci; S. dysgalactiae MMX 5121,1 µg/mL
same,MIC,Streptococci; S. dysgalactiae MMX 5123,1 µg/mL
same,MIC,Streptococci; S. dysgalactiae MMX 5124,1 µg/mL
same,MIC,Streptococci; S. mitis (MGS) MMX 5798,0.5 µg/mL
same,MIC,Streptococci; S. oralis (MGS) MMX 5821,1 µg/mL
same,MIC,"Streptococci; S. pneumoniae MMX 432, PRSP",1 µg/mL
same,MIC,Streptococci; S. pneumoniae MMX 747,1 µg/mL
same,MIC,Streptococci; [5],1 µg/mL
same,MIC,Streptococci; S. pyogenes MMX 404 ATCC 19615,2 µg/mL
same,MIC,"Streptococci; S. pyogenes MMX 946, ermR",1 µg/mL
same,MIC,Streptococci; S. pyogenes MMX 8778,1 µg/mL
same,MIC,S. haemolyticus (CoNS),0.5 µg/mL
same,MIC,S. lugdenensis (CoNS),0.5 µg/mL
same,RV40 activity as compared to Comparator,"Staphylococcus aureus; MRSA strains (Table 5), […]",214 ×
same,MIC,Staphylococcus aureus; [6],4 µg/mL
same,MIC,Staphylococcus aureus; [7],1 µg/mL
same,MIC,Staphylococcus aureus; [8],1.5 µg/mL
same,MIC,Staphylococcus aureus; [9],2 µg/mL
same,MIC,"Staphylococcus aureus; MRSA, S. aureus MMX 2010, MRSA",3 µg/mL
same,MIC,"Staphylococcus aureus; MRSA, S. aureus MMX 3982, MRSA",3 µg/mL
same,MIC,"Staphylococcus aureus; MRSA, S. aureus MMX 5985, MRSA",2.5 µg/mL
same,MIC,"Staphylococcus aureus; MRSA, S. aureus MMX 5999, MRSA",1.5 µg/mL
same,MIC,"Staphylococcus aureus; MRSA, S. aureus MMX 7899, MRSA",1.5 µg/mL
same,MIC,"Staphylococcus aureus; MRSA, S. aureus MMX 7900, MRSA",2 µg/mL
same,MIC,"Staphylococcus aureus; MRSA, S. aureus MMX 7901, MRSA",2 µg/mL
same,MIC,"Staphylococcus aureus; MRSA, S. aureus MMX 7902, MRSA",2 µg/mL
same,MIC,"Staphylococcus aureus; MRSA, S. aureus MMX 7903, MRSA",1.5 µg/mL
same,MIC,"Staphylococcus aureus; MSSA, S. aureus MMX 2490, MSSA",1.5 µg/mL
same,MIC,"Staphylococcus aureus; MSSA, S. aureus MMX 7907, MSSA",3 µg/mL
same,MIC,"Staphylococcus aureus; MSSA, S. aureus MMX 7908, MSSA",2 µg/mL
same,MIC,"Staphylococcus aureus; S. aureus MMX 4665, hVISA",1.5 µg/mL
same,MIC,"Staphylococcus aureus; S. aureus MMX 5989, Mu3, hVISA",1.5 µg/mL
same,MIC,Staphylococcus aureus; [10],1.25 µg/mL
same,MIC,Staphylococcus aureus; [11],1.5 µg/mL
same,MIC,"Staphylococcus aureus; VISA, S. aureus MMX 4658, VISA",1.5 µg/mL
same,MIC,"Staphylococcus aureus; VISA, S. aureus MMX 4660, VISA",2.5 µg/mL
